The target of the experiment is T1, TRF1 (Mus musculus, UniProt P70371).
T1 construct: endogenous in cells; host or cells: CHA9.3 primary murine lung cancer cell line
T1 sequence (P70371 1-421): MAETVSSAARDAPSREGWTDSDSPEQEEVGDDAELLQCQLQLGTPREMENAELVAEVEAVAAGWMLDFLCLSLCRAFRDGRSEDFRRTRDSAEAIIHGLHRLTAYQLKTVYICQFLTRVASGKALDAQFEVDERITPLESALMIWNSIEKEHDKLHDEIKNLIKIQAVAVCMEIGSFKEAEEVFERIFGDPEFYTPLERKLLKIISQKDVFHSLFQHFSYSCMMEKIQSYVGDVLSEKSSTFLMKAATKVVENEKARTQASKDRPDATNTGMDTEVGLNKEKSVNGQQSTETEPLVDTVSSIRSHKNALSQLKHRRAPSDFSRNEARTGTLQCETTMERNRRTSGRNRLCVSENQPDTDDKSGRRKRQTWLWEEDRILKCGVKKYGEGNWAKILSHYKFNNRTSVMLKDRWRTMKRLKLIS
Put plainly: Measurement of TRF1 levels at telomere by immunofluorescence. In kind it is cell-based. To be noted: for inhibition at 10 µM / % inhibition of TRF1 levels: CHA9.3 cells (primary murine lung cancer cell line), compound at 10 µM, 24 hours, duplicates; for % inhibition of TRF1 levels: 10 µM; for TRF1 inhibition activity (active / inactive, in words): qualitative SAR statement in the description. As for the experimental part: Assay was performed in CHA9.3, a primary murine cell line derived from a lung cancer. (Garcia-Beccaria et al., 2015). Cells were grown in DMEM (Gibco) supplemented with 10% FBS (fetal bovine serum), 1% penicillin/estreptomicen (Someglas 100U/ml) and 0.5% Amphotericin B (Gibco). Cells were incubated at 37 °C with 5% CO2. Cells were trypsinized with Trypsin-EDTA (Sigma) and washed with PBS (BioWhittaker) before counting and plating.
Cells were seeded in 10000 cells per 150 µl per well into black 96-well plates (Falcon) and incubated for 16 h at 37°C, 5% CO2. On day two, duplicates of each compound at 10 µM in DMSO were tested. The compounds were added to duplicate wells in 96-well cell plates using a FX BECKMAN robot (BeckmanCoulter) and were incubated at 37°C under CO2 atmosphere. After 24 hours, relative levels of TRF1 at telomeres were quantified by immunofluorescence. A rat monoclonal antibody against mouse TRF1 developed by the Monoclonal antibody unit at CNIO was used to detect endogenous TRF1.
First cells were fixed with 4 % formaldehyde (Sigma) in PBS (Alaos) during 13 minutes at room temperature (RT). After removal of the medium, cells were washed twice with PBS 10 minutes. Cells were permeabilized with a solution 0.2%Triton X-100 (Sigma) in PBS during 10 minutes at RT. After two more washes with PBS, cells were incubated with a solution 0.1%NaCitrate (Fluka) /0.1 %Triton X100 during 5 minutes at RT. After, two more washes with PBS cells were blocked with a solution 3% BSA (Sigma) in PBS-T, PBS with 0.05% Tween20 (Sigma), during 3 o 4 hours. Then, cells were incubated o/n at 4 °C with a dilution 1:750 of anti TRF1 antibody. After two washes of 10 minutes with PBS-T, cells were incubated with secondary antibody anti-rat 555 (Alexa Fluor) (1 :500) during 1 hour at RT: Then, 3 washes with PBS-T (0.05%) of 10 minutes and a last wash with PBS1X were performed. Nuclear staining was performed with Hoechst (Invitrogen) at de […] in PBS1X during10 minutes.
For quantification of TRF1 foci intensity, pictures of fixed cells were automatically acquired from each well by the Opera High Content Screening (HCS) system (Perkin Elmer). Forty images of random fields per well, with a 40xmagnification lens, were taken under non-saturating conditions. At least 1 × 10^3 cells were analyzed for each well. Briefly, images were segmented using the DAPI staining to generate masks matching cell nuclei from which-TRF1 foci were analyzed. Automatic analysis was performed with Acapela v2.0 software. Quantification of the inhibition of TRF1 levels at telomeres was performed with Pipeline platform.

The structures appear in SMILES notation.

For the molecule `Nc1ccc(CC(N)c2csc(Nc3ncccn3)n2)cc1` (centres unmarked) [Compound 52], the inhibition (commonly how much of the control response was suppressed) at 10 µM was found to be 10.5%.

As for `NC(Cc1ccc(Br)cc1)c1csc(Nc2ncccn2)n1` (racemic) [Compound 8], the inhibition at 10 µM stood at 32.4%.

With `C#Cc1cnc(Nc2nc(C(N)Cc3ccccc3)cs2)nc1` (racemic) [Compound 62], the inhibition at 10 µM worked out at 11.4%.

With `C#CCCCCOc1ccc(CC(N)c2csc(Nc3ncccn3)n2)cc1` (racemic) [Compound 26], 10 µM produced 0% inhibition.

The molecule `C#Cc1cccc(CC(N)c2csc(Nc3ncccn3)n2)c1` (racemic) [Compound 58] displayed an inhibition at 10 µM of 27.1%.

With `NC(Cc1ccccc1Br)c1csc(Nc2ncccn2)n1` (single isomer, unassigned) [Compound 4], the “% inhibition of TRF1 levels” value is recorded as 24.91%.

The molecule `NC(Cc1ccccc1)c1csc(Nc2ncccn2)n1` (racemic) [Compound 1] gave an inhibition at 10 µM of 27.3%.

`C#CCOc1cccc(-c2sc(Nc3ncccn3)nc2C(N)Cc2ccccc2)c1` (racemic) [Compound 87]: testing at 10 µM gave an inhibition of 17.5%.

The molecule `Cc1cnc(Nc2nc([C@@H](N)Cc3ccccc3)cs2)nc1` [Compound 36] registered an inhibition at 10 µM of 18.4%.

Take `C#Cc1cnc(Nc2nc([C@@H](N)Cc3ccccc3)cs2)nc1` [Compound 64]: the inhibition at 10 µM worked out at 6.41%.

The molecule `C#CCCC(=O)Nc1cnc(Nc2nc(C(N)Cc3ccc(F)cc3)cs2)nc1` (centres unmarked) [Compound 74] had an inhibition at 10 µM of 15.5%.

Molecule `C#Cc1cccc(C[C@@H](N)c2csc(Nc3ncccn3)n2)c1` [Compound 60] gave an inhibition at 10 µM of 24.8%.

`NC(Cc1ccc([N+](=O)[O-])cc1)c1csc(Nc2ncccn2)n1` (racemic) [Compound 14] had an inhibition at 10 µM of 0%.

Take `C#CCOc1cccc(CC(N)c2csc(Nc3ncccn3)n2)c1` (single isomer, unassigned) [Compound 18]: 10 µM produced 33.8% inhibition and the “TRF1 inhibition activity (active / inactive, in words)” value is reported as “active”.

Molecule `C#Cc1ccc(C[C@@H](N)c2csc(Nc3ncccn3)n2)cc1` [Compound 68] gave an inhibition at 10 µM of 31.2%.

`C#Cc1cccc(-c2sc(Nc3ncccn3)nc2C(N)Cc2ccccc2)c1` (centres unmarked) [Compound 81] registered an inhibition at 10 µM of 19.7%.

Take `C#Cc1ccc(C[C@H](N)c2csc(Nc3ncccn3)n2)cc1` [Compound 69]: 10 µM produced 7.7% inhibition.

`N[C@@H](Cc1ccccc1)c1csc(Nc2ncc(Br)cn2)n1` [Compound 34] yielded an inhibition at 10 µM of 21%.

With `NC(Cc1ccc(O)cc1)c1csc(Nc2ncccn2)n1` (centres unmarked) [Compound 120], 10 µM produced 20% inhibition.

`NC(Cc1cccc(O)c1)c1csc(Nc2ncccn2)n1` (centres unmarked) [Compound 105] came in with an inhibition at 10 µM of 29.5%.

`C#Cc1cnc(Nc2nc([C@H](N)Cc3ccccc3)cs2)nc1` [Compound 63] registered an inhibition at 10 µM of 11.7%.

On to `NC(Cc1cccc(Cl)c1)c1csc(Nc2ncccn2)n1` (racemic) [Compound 12], for which at 10 µM the inhibition was 27.9%.

`C#CCOc1ccc(CC(N)c2csc(Nc3ncccn3)n2)cc1` (racemic) [Compound 20]: the inhibition at 10 µM was 19.4% and the “TRF1 inhibition activity (active / inactive, in words)” value is listed as “active”.

Take `C#CCOc1cccc(-c2sc(Nc3ncccn3)nc2[C@H](N)Cc2ccccc2)c1` [Compound 123]: the inhibition at 10 µM is 10.9%.

On to `COCCOc1cccc(-c2sc(Nc3ncccn3)nc2[C@@H](N)Cc2ccccc2)c1` [Compound 84], for which the inhibition at 10 µM came to 16.3%.

As for `C#CCOc1cccc(CC(N)c2csc(Nc3ncccn3)n2)c1` (racemic) [Compound 17], the inhibition at 10 µM came out at 31.6% and the “TRF1 inhibition activity (active / inactive, in words)” value is given as “active”.

In turn, `Nc1cccc(-c2sc(Nc3ncccn3)nc2C(N)Cc2ccccc2Br)c1` (centres unmarked) [Compound 78] registered an inhibition at 10 µM of 27.8%.

In the case of `NC(Cc1cccc(Br)c1)c1csc(Nc2ncccn2)n1` (single isomer, unassigned) [Compound 7], the “% inhibition of TRF1 levels” value is 28.55%.

As for `C#CCOc1cccc(-c2sc(Nc3ncccn3)nc2[C@@H](N)Cc2ccccc2)c1` [Compound 122], 10 µM produced 5.33% inhibition.

For the molecule `C#CCOc1cccc(C[C@H](N)c2csc(Nc3ncccn3)n2)c1` [Compound 19], testing at 10 µM gave an inhibition of 27.5% and the “TRF1 inhibition activity (active / inactive, in words)” value is “active”.

Regarding `NC(Cc1cccc(Br)c1)c1csc(Nc2ncccn2)n1` (single isomer, unassigned) [Compound 6], the inhibition at 10 µM was 28.3%.

For the molecule `COc1cc(C)nc(Nc2nc([C@@H](N)Cc3ccccc3)cs2)n1` [Compound 37], the inhibition at 10 µM turned out to be 9.77% and the “TRF1 inhibition activity (active / inactive, in words)” value is listed as “active”.

In the case of `NC(Cc1cccc(Br)c1)c1csc(Nc2ncccn2)n1` (racemic) [Compound 5], testing at 10 µM gave an inhibition of 29.8%.

In the case of `Cc1ccnc(Nc2nc([C@@H](N)Cc3ccccc3)cs2)n1` [Compound 33], the inhibition at 10 µM was 30%.

For `N[C@@H](Cc1ccccc1)c1nc(Nc2ncccn2)sc1Br` [Compound 88], 10 µM produced 29.9% inhibition.

Take `C#Cc1ccc(CC(N)c2csc(Nc3ncccn3)n2)cc1` (racemic) [Compound 66]: the inhibition at 10 µM came out at 18.1%.

Regarding `N[C@@H](Cc1ccccc1)c1csc(Nc2ccccn2)n1` [Compound 35], the inhibition at 10 µM is 20.5%.

`NC(Cc1ccccc1Br)c1csc(Nc2ncccn2)n1` (racemic) [Compound 2] had an inhibition at 10 µM of 29.8%.

In turn, `CC(=O)Nc1cccc(-c2sc(Nc3ncccn3)nc2C(N)Cc2ccccc2)c1` (centres unmarked) [Compound 83] came in with an inhibition at 10 µM of 17.2%.

`C#Cc1cccc(C[C@H](N)c2csc(Nc3ncccn3)n2)c1` [Compound 61]: the inhibition at 10 µM was 30.5%.

Take `N[C@@H](Cc1ccccc1)c1nc(Nc2ncccn2)sc1-c1cccc(O)c1` [Compound 89]: at 10 µM the inhibition was 23%.

`NC(Cc1ccccc1Br)c1csc(Nc2ncccn2)n1` (single isomer, unassigned) [Compound 3] showed an inhibition at 10 µM of 25.4%.

(Values after EP3623370A1, “NOVEL TRF1 MODULATORS AND ANALOGUES THEREOF” (Fundación del Sector Público Estatal Centro Nacional de …, priority 2018, dated 2020).)
